Experimental data as given in patent US20060142354A1, “Use of epothilone derivatives for the treatment of hyperparathyroidism” (priority 2002, published 2006).

Columns and labels:
Assay type in all cases: cell-based, human
[1] = tested on: Tumor disks from seven fresh surgical specimens; assay: in vitro angiogenesis assay, mean over all tumors; details: Mean +/− SEM of seven tumors; for % Initiation % ↓ / Al (0-16) % ↓: 10^−8 M, decrease vs control
Excerpt: (§1) It is submitted that at least part of the effect observed with the compounds of formula I on the diseases mentioned herein are resulting from the inhibition of angiogenesis. […] It is known that human vein disks incorporated into a 0.3% fibrin-thrombin clot will develop angiogenic vessel growth from the cut edge of the vessel disk.
(§2) METHODS: Tumor disks (2 mm in diameter) from seven fresh surgical specimens are incorporated into fibrin-thrombin clots overlayed with nutrient medium containing 20% fetal bovine serum. The fragments are allowed to become angiogenic and on day 18, nutrient medium or nutrient medium containing a compound of formula I, is added. Tumor disks are visually assessed over time to determine the percent of wells that initiated an angiogenic response (% I). Neovessel growth, density, and length are graded at intervals using a semi-quantitative visual neovessel growth-rating scheme [angiogenic index (AI), 0-16 scale]. Statistical significance of the results is tested using comparison of two proportions for % initiation and t-tests for the angiogenic index (p<0.05 considered significant*).

[2] = tested on: Bronchial carcinoid tumor disks; assay: in vitro angiogenesis assay, tumor disks in fibrin-thrombin clot
Excerpt: as §1, §2

[3] = tested on: Breast carcinoma tumor disks; assay: as above
Excerpt: as §1, §2

[4] = tested on: Renal cell carcinoma tumor disks; assay: as above
Excerpt: as §1, §2

[5] = tested on: Midgut carcinoid (met) tumor disks; assay: as above
Excerpt: as §1, §2

[6] = tested on: Thyroid cancer tumor disks; assay: as above; details: Thyroid cancer (identified as a parathyroid adenoma)
Excerpt: as §1, §2

[7] = tested on: Midgut carcinoid tumor disks; assay: as above
Excerpt: as §1, §2

[8] = tested on: Thymic carcinoid tumor disks; assay: as above
Excerpt: as §1, §2

[9] = percent of wells that initiated an angiogenic response

C/C(=C\c1csc(C)n1)[C@@H]1C[C@@H]2O[C@]2(C)CCC[C@H](C)[C@H](O)[C@@H](C)C(=O)C(C)(C)[C@@H](O)CC(=O)O1 [epothilone B]
Al (0-16) EpoB 10^−8 M ([1]; angiogenic index, 0-16 scale): 3 ± 1.1 | % Initiation EpoB 10^−8 M [1, 9]: 17.2 ± 7.4% | % Initiation % ↓ [1]: 60±13.8% | Al (0-16) % ↓ [1]: 73±9% | % Initiation % ↓ ([1]; listed as EpoB): 60 ± 14% | Al (0-16) % ↓ ([1]; listed as EpoB): 73 ± 9% | % Initiation % ↓ ([2]; 10^−8 M, decrease vs control): 12% | Al (0-16) % ↓ ([2]; 10^−8 M, decrease vs control): 40% | Al (0-16) EpoB 10^−8 M ([2]; angiogenic index, 0-16 scale): 6.1 | % Initiation EpoB 10^−8 M [2, 9]: 37% | % Initiation % ↓ ([3]; 10^−8 M, decrease vs control): 94% | Al (0-16) % ↓ ([3]; 10^−8 M, decrease vs control): 91% | Al (0-16) EpoB 10^−8 M ([3]; angiogenic index, 0-16 scale): 1 | % Initiation EpoB 10^−8 M [3, 9]: 3.3% | % Initiation % ↓ ([4]; 10^−8 M, decrease vs control): 88% | Al (0-16) % ↓ ([4]; 10^−8 M, decrease vs control): 80% | Al (0-16) EpoB 10^−8 M ([4]; angiogenic index, 0-16 scale): 1 | % Initiation EpoB 10^−8 M [4, 9]: 6.7% | % Initiation % ↓ ([5]; 10^−8 M, decrease vs control): 100% | Al (0-16) % ↓ ([5]; 10^−8 M, decrease vs control): 100% | Al (0-16) EpoB 10^−8 M ([5]; angiogenic index, 0-16 scale): 0 | % Initiation EpoB 10^−8 M [5, 9]: 0% | Al (0-16) EpoB 10^−8 M ([6]; angiogenic index, 0-16 scale): 2.1 | % Initiation EpoB 10^−8 M [6, 9]: 50% | % Initiation % ↓ ([6]; 10^−8 M, decrease vs control): 50% | Al (0-16) % ↓ ([6]; 10^−8 M, decrease vs control): 85% | % Initiation % ↓ ([7]; 10^−8 M, decrease vs control): 15% | Al (0-16) % ↓ ([7]; 10^−8 M, decrease vs control): 40% | Al (0-16) EpoB 10^−8 M ([7]; angiogenic index, 0-16 scale): 8.2 | % Initiation EpoB 10^−8 M [7, 9]: 20% | % Initiation % ↓ ([8]; 10^−8 M, decrease vs control): 40% | Al (0-16) % ↓ ([8]; 10^−8 M, decrease vs control): 73% | Al (0-16) EpoB 10^−8 M ([8]; angiogenic index, 0-16 scale): 2.5 | % Initiation EpoB 10^−8 M [8, 9]: 3.3%
